Where “and” joins values, the source holds several entries; their conditions need not be identical. Equal values may be shown once.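 Results reflect a 48-hour exposure of cells in 96-well plates to compound at five concentrations. GI50 is the concentration that inhibits growth by half. TGI: concentration producing complete growth inhibition.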
How the values were obtained:
Test in all cases: NCI anticancer screen, dose series, 48 h
HOP-92 NSCLC = tested on: HOP-92 NSCLC
UACC-257 melanoma = tested on: UACC-257 melanoma
SK-MEL-5 melanoma = tested on: SK-MEL-5 melanoma
SF-295 CNS = tested on: SF-295 CNS
RXF 393 renal = tested on: RXF 393 renal
NCI-H460 lung = tested on: NCI-H460 lung
A498 renal = tested on: A498 renal
SF-268 CNS = tested on: SF-268 CNS
NCI-H23 lung = tested on: NCI-H23 lung
CCRF-CEM leukemia = tested on: CCRF-CEM leukemia

Structure (SMILES)	TGI (HOP-92 NSCLC) [µM]	TGI (UACC-257 melanoma)	TGI (SK-MEL-5 melanoma) [µM]	TGI (SF-295 CNS) [µM]	TGI (RXF 393 renal)	TGI (NCI-H460 lung) [µM]	TGI (A498 renal) [µM]	TGI (SF-268 CNS) [µM]	TGI (NCI-H23 lung)	TGI (CCRF-CEM leukemia) [µM]	GI50 (HOP-92 NSCLC) [µM]	GI50 (UACC-257 melanoma)	GI50 (SK-MEL-5 melanoma)	GI50 (SF-295 CNS)	GI50 (RXF 393 renal)	GI50 (NCI-H460 lung)	GI50 (A498 renal)	GI50 (SF-268 CNS)	GI50 (NCI-H23 lung)	GI50 (CCRF-CEM leukemia)
COc1ccc(NC(=O)C(=O)c2c(O)c3ccc(O)cc3oc2=O)c([N+](=O)[O-])c1	> 100	> 100 µM	> 100	> 100	> 100 µM	> 100	> 100	> 100	> 100 µM	> 100	–	–	–	–	–	–	–	–	–	–
Nc1nccc(-c2c(-c3ccc(F)cc3)ncn2C2CCNCC2)n1	> 25	> 25 µM and 17.6 µM	> 19.9	> 25	> 25 µM and 10.5 µM	> 25	> 25	> 25	> 25 µM and 18.8 µM	> 25	3.07	10.2 µM and 3.45 µM	1.74 µM and 4.23 µM	> 12.4 µM and 5.75 µM	2.35 µM and 3.6 µM	1.55 µM and 1.36 µM	8.88 µM and 2.16 µM	5.92 µM and 2.76 µM	9.71 µM and 4.41 µM	13.2 µM and 4.52 µM
CC(C)(C)c1ccc(S(=O)(=O)Oc2ccc3c4c(c(=O)oc3c2)CCCCC4)cc1	12.2	> 100 µM	85.4	> 100	63.5 µM	> 100	36.3	> 100	> 100 µM	> 100	1.22	7.46 µM	5.48 µM	20.9 µM	17.8 µM	7.3 µM	6.53 µM	39.7 µM	13.5 µM	> 100 µM
COc1ccc(/C=C(/C#N)C(N)=O)c(OC)c1	> 100	> 100 µM	> 100	> 100	> 100 µM	> 100	25.7	> 100	> 100 µM	> 100	–	–	–	–	–	–	–	–	–	–
CS(=O)(=O)Nc1cncc(-c2ccc3ncnc(Nc4ccc(F)c(Cl)c4)c3c2)c1	4.82	23 µM	4.48	13	5.87 µM	16	3.2	18.7	13.1 µM	13	0.369	4.59 µM	1.83 µM	2.79 µM	1.49 µM	4.22 µM	0.57 µM	2.63 µM	2.41 µM	1.38 µM
CCN1C(=S)N(c2ccccc2)C2NC(=S)N(/N=C/C=C/c3ccccc3OC)C21 (centres undefined)	> 100	> 100 µM	3.14	> 100	0.65 µM	> 100	0.833	> 91	> 100 µM	> 100	3.98	> 100 µM	0.322 µM	0.263 µM	0.189 µM	0.37 µM	0.235 µM	0.706 µM	0.658 µM	0.362 µM
CC(C)(Br)C(=O)N1CCN(C(c2ccccc2)c2ccccc2)CC1	> 100	> 100 µM	> 100	> 100	81.2 µM	> 100	> 100	> 100	> 100 µM	> 100	–	–	–	–	–	–	–	–	–	–
COc1ccc(C2CC(c3cccc(Nc4ccnc5cc(Cl)ccc45)c3)=NN2C=O)cc1 (centres undefined)	> 100	34.8 µM	25.8	2.57	7.39 µM	> 100	4.2	> 100	> 81.6 µM	–	> 100	0.677 µM	0.403 µM	0.311 µM	0.883 µM	0.415 µM	0.325 µM	1.37 µM	0.967 µM	0.434 µM
O=Nc1ccc(O)c(=O)cc1	3.39	7.86 µM	10.6	79.2	1.59 µM	23.5	28.6	10.6	12 µM	1.19	0.998	2.26 µM	3.63 µM	26.1 µM	0.572 µM	4.76 µM	4.89 µM	3.43 µM	3.04 µM	0.264 µM
COC(=O)C(C(=O)C(=O)Nc1c(C)cccc1C)c1cnc2ccccc2n1 (centres undefined)	> 100	> 100 µM	> 100	> 100	> 100 µM	> 100	> 100	> 100	> 100 µM	> 100	–	–	–	–	–	–	–	–	–	–
COc1ccc(C2=C(Cl)c3cc(OC)c(OC)cc3C2OC)cc1OC (centres undefined)	> 100	> 100 µM	> 100	> 100	> 100 µM	> 100	> 100	> 100	> 100 µM	> 100	–	–	–	–	–	–	–	–	–	–
COc1cc(Nc2nc3cc(N)cc(N)c3nc2-c2ccccc2)cc(OC)c1OC	21	> 100 µM	27.8	42.8	34.4 µM	52.8	> 100	60.8	76.7 µM	42	2.73	29.6 µM	13 µM	16 µM	14.4 µM	17.1 µM	31.3 µM	18.1 µM	24.9 µM	4.4 µM
C/C(=C1/N=C(c2cc([N+](=O)[O-])ccc2Cl)N(c2cccc(C)c2)C1=O)c1cc2ccccc2oc1=O	> 100	77.3 µM	53.8	> 100	> 100 µM	> 100	> 100	> 100	> 100 µM	> 100	–	–	–	–	–	–	–	–	–	–
CC(C)(CN1CCCCC1)C(=O)/C=C/c1ccc(/C=C/C(=O)C(C)(C)CN2CCCCC2)cc1	1.58	2.13 µM	1.98	1.68	0.745 µM	1.96	3.08	1.71	2.04 µM	0.234	–	–	–	–	–	–	–	–	–	–
NS(=O)(=O)c1ccc(Nc2cc(-c3cccc(O)c3)[nH]n2)cc1	> 25	> 25 µM	> 25	> 25	> 25 µM	> 25	> 25	> 25	> 25 µM	> 25	10.2	> 25 µM	14.8 µM	> 25 µM	> 25 µM	> 25 µM	> 25 µM	> 25 µM	> 25 µM	8.04 µM
Cc1cccc(N(C)C(=O)[C@@H]2[C@H](O)CCN2c2nc(C)cc(C(F)(F)F)c2C#N)c1	53.1	> 100 µM	30.6	54.2	40.1 µM	> 100	69.8	> 100	> 100 µM	> 100	11	28.3 µM	15.6 µM	20.3 µM	14.6 µM	31.8 µM	21.9 µM	26.5 µM	31.2 µM	25.8 µM
COc1ccc2c(c1)/C(=C\c1c(-c3cc(OC)ccc3OC)nc3sc(C)cn13)C(=O)N2C	37.6	45.9 µM	65.4	35.8	> 100 µM	93.9	98.7	> 100	> 100 µM	> 100	4.33	23.5 µM	20.9 µM	13.1 µM	> 100 µM	24.9 µM	27.2 µM	28.6 µM	38.5 µM	12.1 µM
COC(=O)c1n[nH]c(C)c1N=NN(C)CCC#N	35	> 100 µM	74.5	73.4	29.7 µM	36.5	> 100	50	36.5 µM	41.5	–	–	–	–	–	–	–	–	–	–
CCN(Cc1ccc(C)cc1)c1ccc(CO)c(Cl)c1	15.3	0.339 µM	17.7	15.8	18.9 µM	11.7	0.178	30.3	25.3 µM	51.3	1.86	0.134 µM	3.84 µM	1.01 µM	4.71 µM	0.306 µM	0.0398 µM	15 µM	9.95 µM	15.9 µM
CC1=CC(=O)C2=C(C)CCC3C(C)C(=O)OC3C12 (centres undefined)	> 100	> 100 µM	> 100	> 100	> 100 µM	> 100	> 100	> 100	> 100 µM	> 100	–	–	–	–	–	–	–	–	–	–
CCN(CC)c1ccc(/C=N/NC(=O)CSc2nc3ccccc3c(=O)n2CCc2ccc(S(N)(=O)=O)cc2)c(O)c1	75.2	69.1 µM	14.9	> 100	32.2 µM	> 100	> 100	> 100	> 100 µM	4.35	2.15	3.25 µM	2.49 µM	4.01 µM	2.17 µM	0.595 µM	> 100 µM	2.05 µM	2.99 µM	0.326 µM
CC(=O)c1ccc2c(c1)c1cc(C(C)=O)ccc1n2CCNC(C)C	4.27	1.31 µM	0.923	2.62	1.79 µM	1.81	1.89	3.33	2.41 µM	2.65	0.764	0.296 µM	0.291 µM	0.426 µM	0.289 µM	0.308 µM	0.398 µM	0.417 µM	0.389 µM	0.455 µM

— PubChem BioAssay (NCI)
